Data reported in US11396503B2, “Sulfonyl substituted bicyclic compound which acts as ROR inhibitor” (CHIA TAI TIANQING PHARMACEUTICAL GROUP CO., LTD, priority 2017, dated 2022).

Molecular target: T1, hRORγt (Homo sapiens, UniProt P51449)
T1 construct: expressed in transfected cells; host or cells: CHO-S (Chinese hamster ovary cells, Invitrogen R80007), transiently transfected with pM-hRORγt and pG5-luc
T1 sequence (P51449 1-497 isoform P51449-2): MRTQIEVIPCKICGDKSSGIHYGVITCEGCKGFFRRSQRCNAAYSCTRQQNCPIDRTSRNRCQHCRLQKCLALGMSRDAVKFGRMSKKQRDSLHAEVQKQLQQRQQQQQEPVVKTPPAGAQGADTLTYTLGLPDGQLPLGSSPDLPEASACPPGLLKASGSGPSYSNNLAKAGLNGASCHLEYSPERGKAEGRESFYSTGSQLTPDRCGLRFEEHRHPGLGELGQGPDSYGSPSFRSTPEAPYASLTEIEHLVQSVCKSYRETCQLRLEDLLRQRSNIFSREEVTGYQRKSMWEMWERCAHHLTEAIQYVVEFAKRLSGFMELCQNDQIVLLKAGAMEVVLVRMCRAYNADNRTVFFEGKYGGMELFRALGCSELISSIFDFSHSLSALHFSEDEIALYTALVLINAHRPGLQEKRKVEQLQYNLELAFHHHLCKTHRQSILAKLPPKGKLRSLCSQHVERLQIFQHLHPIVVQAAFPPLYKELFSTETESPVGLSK
Test: Luciferase assay (reporter gene, recombinant plasmid hRORγt)
Assay type: cell-based
Conditions: CHO-S cells transfected with pM-hRORγt and pG5-luc; overnight culture with compound; ONE-Glo luciferase readout; read-out: RORgt EC50
Source text: This assay method used luciferase as a reporter gene to detect the expression of cells transfected with a gene recombinant plasmid at gene transcription level, wherein the recombinant plasmid was constructed by the promoter of a target gene and a luciferase gene. The experiment was primarily related to the transfection of the recombinant plasmid hRORγt (“RORgt”).
I. Reagents and Materials:
1. Cells: Chinese hamster ovary cells (CHO—S, Invitrogen, Cat #R80007), suspension-cultured in CD-CHO culture medium containing 8 mM L-glutamine and 1×HT.
a) Luciferase reporter gene plasmid pG5-luc: reporter plasmid (Promega).
b) Target gene plasmid pM-hRORγt: human RORgamma.
4. Transfection reagent: TransIT-CHO transfection kit (Minis Bio Co.) containing Trans-It reagent and Mojo reagent (Minis, MIR2170).
7. Luciferase kit: (Promega ONE-Glo, 100 ml, Catalog #E6120): containing luciferase substrate (Coenzyme A, ATP and luciferin) and a reaction buffer.
II. Specific Experimental Steps
1. Cell seeding: 18 to 24 h before transfection, a 125 mL shake flask was charged with CHO—S cells having a concentration of 0.5×10^6 cells/mL to 0.6×10^6 cells/mL, and CD-CHO culture medium (the culture medium only contained L-glutamine and an HT supplement) was added thereto to a final volume of 18 mL. The shake flask was placed on a shaker, and the cells were passaged overnight under a condition of 120 rpm, 37° C. and 8% CO2.
2. Cell transfection: At this time, the cell concentration of the above-mentioned solution should be 1.2×10^6 cells/mL to 1.5×10^6 cells/mL. CD-CHO culture medium (containing L-glutamine and an HT supplement) was used for dilution until the cell concentration reached 1×10^6 cells/mL.
B. Preparation of transfection reagent (TransIT-CHO: Mojo: DNA complex), which was formulated immediately before transfection.
1. Trans-IT reagent was warmed to room temperature in advance and shaken to be uniformly mixed before use.
2. Preparation for DNA transfection: the following reagents were mixed in a 1.5 mL sterile centrifuge tube:
27 μg of luciferase reporter gene plasmid pG5-luc: 27 μL, 1 mg/mL solution,
0.75 μg of the expression plasmid of the target gene (pM-hRORγt, 7.5 μL, 0.1 mg/mL solution).
3. The following reagents were charged into a 15 mL sterile centrifuge tube:
83 μL of TransIT-CHO reagent
the DNA complex prepared in step 2
4. The mixture was mixed well and placed at room temperature for 5 min.
5. 13.9 μL of Mojo reagent was charged into a sterile centrifuge tube, mixed slightly, and placed at room temperature for 20 min to form a transfection complex.
1. A 125 mL shake flask was charged with the transfection complex prepared in step B dropwise while being shaken slowly.
2. The cells were cultured for 4 h in a shaker under a condition of 37° C. and 8% carbon dioxide.
3. After 4 h, the cells were transferred to a 50 mL sterile centrifuge tube, centrifuged at 1200 rpm for 4 min, and the supernatant was aspirated.
4. The cells were re-suspended in 6 mL of a freezing medium (CD-CHO, L-glutamine, HT supplement, and 10% DMSO), and the cell density should be 3×10^6 cells/ml at this time.
5. The mixture was dispensed into 12 tubes with 0.5 mL in each tube. The tubes were placed in a refrigerator at −80° C. to be slowly frozen overnight, and then were transferred into liquid nitrogen for long-term storage.
D. Luciferase activity assay (96-well flat plate)
1. The cells were thawed at 37° C.
2. The cells (1.5×10^6 cells/0.5 mL) were diluted with 2 mL of freshly formulated culture medium (CD-CHO, L-glutamine and an HT supplement) to a volume of 2.5 mL, and then were transferred to a 15 mL sterile centrifuge tube.
3. Cell counting: If the cells were completely viable, a concentration of 6×10^5 cells/mL should be achieved. […] If necessary, the cells were diluted with culture medium.
4. Cell seeding: 100 μl cells (4×10^4 cells) were added to each well.

SMILES | EC50
CC[C@@H]1CCc2cc(C(C)C)ccc2N1S(=O)(=O)c1ccc(OCC2CCOCC2)c(CO)c1 | 48000 pM
CCC1CCc2cc(C(C)C)ccc2N1S(=O)(=O)c1ccc(OCC2CCOCC2)c(CO)c1 (stereo not shown) | 3500 pM
CC(C)c1ccc2c(c1)CCC(C1CC1)N2S(=O)(=O)c1ccc(OCC2CCOCC2)c(CO)c1 (stereo not shown) | 6600 pM
CCc1ccc2c(c1)CCCN2S(=O)(=O)c1ccc(OCC2CCOCC2)c(CO)c1 | 858000 pM
CCc1ccc2c(c1)CCC(C1CCC1)N2S(=O)(=O)c1ccc(OCC2CCOCC2)c(CO)c1 (stereo not shown) | 8100 pM
CCC1CCc2cc(C3CCC3)ccc2N1S(=O)(=O)c1ccc(OCC2CCOCC2)c(CO)c1 (stereo not shown) | 5500 pM
CCc1ccc2c(c1)CCC(CC)N2S(=O)(=O)c1ccc(C(O)CN2CCOCC2)c(CO)c1 (stereo not shown) | 595000 pM
CCc1ccc2c(c1)CCC(CC(C)C)N2S(=O)(=O)c1ccc(OCC2CCOCC2)c(CO)c1 (stereo not shown) | 21000 pM
[2H]C([2H])(O)c1cc(S(=O)(=O)N2c3ccc(C(C)C)cc3CCC2CC)ccc1OCC1CCOCC1 (stereo not shown) | 11500 pM
CC[C@@H]1CCc2cc(C3CCC3)ccc2N1S(=O)(=O)c1ccc(OCC2CCOCC2)c(CO)c1 | 5200 pM
CCc1ccc2c(c1)C(C)CCN2S(=O)(=O)c1ccc(OCC2CCOCC2)c(CO)c1 (stereo not shown) | 655000 pM
Cc1cc(C)c2c(c1)CCC(C1CC1)N2S(=O)(=O)c1ccc(OCC2CCOCC2)c(CO)c1 (stereo not shown) | 18000 pM
CC1CCc2cc(C3CC3)ccc2N1S(=O)(=O)c1ccc(OCC2CCOCC2)c(CO)c1 (stereo not shown) | 20700 pM
C=Cc1ccc2c(c1)CCC(CC)N2S(=O)(=O)c1ccc(OCC2CCOCC2)c(CO)c1 (stereo not shown) | 35500 pM
C[C@H]1CCc2cc(CC(F)(F)F)ccc2N1S(=O)(=O)c1ccc(OCC2CCOCC2)c(CO)c1 | 316000 pM
CCc1ccc2c(c1)CC[C@@H](C1CC1)N2S(=O)(=O)c1ccc(OCC2CCOCC2)c(CO)c1 | 3200 pM
CCc1ccc2c(c1)CC(CC)CN2S(=O)(=O)c1ccc(OCC2CCOCC2)c(CO)c1 (stereo not shown) | 31600 pM
CCc1ccc2c(c1)CC(C)CN2S(=O)(=O)c1ccc(OCC2CCOCC2)c(CO)c1 (stereo not shown) | 36000 pM
CC1CCc2cc(C(F)(F)F)ccc2N1S(=O)(=O)c1ccc(OCC2CCOCC2)c(CO)c1 (stereo not shown) | 15000 pM
CCc1ccc2c(c1)C[C@@H](O)[C@H](C)N2S(=O)(=O)c1ccc(OCC2CCOCC2)c(CO)c1 | 803000 pM

SMILES | EC50
CCc1ccc2c(c1)CCC(CC)N2S(=O)(=O)c1ccc(C(CO)N2CCOCC2)c(CO)c1 (stereo not shown) | 3.12e+06 pM
CCc1ccc2c(c1)CCC(CC)N2S(=O)(=O)c1ccc(OCC2CCS(=O)(=O)CC2)c(CO)c1 (stereo not shown) | 146000 pM
CCc1ccc2c(c1)CC(C)N2S(=O)(=O)c1ccc(OCC2CCOCC2)c(CO)c1 (stereo not shown) | 1.61e+06 pM
CCc1ccc2c(c1)CCC(C1CC1)N2S(=O)(=O)c1ccc(OCC2CCOCC2)c(CO)c1 (stereo not shown) | 7000 pM
CCc1ccc2c(c1)N(S(=O)(=O)c1ccc(OCC3CCOCC3)c(CO)c1)[C@@H](C)CC2 | 223000 pM
C[C@H]1CCc2ccc(C(F)(F)F)cc2N1S(=O)(=O)c1ccc(OCC2CCOCC2)c(CO)c1 | 330000 pM
CC[C@@H]1CCc2cc(C(F)(F)F)ccc2N1S(=O)(=O)c1ccc(OCC2CCOCC2)c(CO)c1 | 5400 pM
CCc1ccc2c(c1)CCC(C(C)C)N2S(=O)(=O)c1ccc(OCC2CCOCC2)c(CO)c1 (stereo not shown) | 12400 pM
CCc1ccc2c(c1)CC[C@@H](C)N2S(=O)(=O)c1ccc(OCC2CCOCC2)c(CO)c1 | 218000 pM
CCc1ccc2c(c1)CC[C@H](CC)N2S(=O)(=O)c1ccc(OCC2CCOCC2)c(CO)c1 | 34900 pM
CC[C@H]1CCc2cc(C(C)C)ccc2N1S(=O)(=O)c1ccc(OCC2CCOCC2)c(CO)c1 | 6800 pM
CCc1ccc2c(c1)CCC(CC)N2S(=O)(=O)c1ccc(OCC2CCOCC2)c(S(C)(=O)=O)c1 (stereo not shown) | 1.86e+06 pM
CCc1cc2c(cc1F)N(S(=O)(=O)c1ccc(OCC3CCOCC3)c(CO)c1)[C@@H](C)CC2 | 96500 pM
CCc1ccc2c(c1)CCC(CC)N2S(=O)(=O)c1ccc(C(O)CC2CCOCC2)c(CO)c1 (stereo not shown) | 201000 pM
CCc1ccc2c(c1)C(C)CN2S(=O)(=O)c1ccc(OCC2CCOCC2)c(CO)c1 (stereo not shown) | 1.4e+06 pM
CCC1CCc2cc(C(C)(F)F)ccc2N1S(=O)(=O)c1ccc(OCC2CCOCC2)c(CO)c1 (stereo not shown) | 15600 pM
CCC1CCc2cc(C(C)(C)C)ccc2N1S(=O)(=O)c1ccc(OCC2CCOCC2)c(CO)c1 (stereo not shown) | 70200 pM
CC[C@@H]1CCc2cc(C(C)(F)F)ccc2N1S(=O)(=O)c1ccc(OCC2CCOCC2)c(CO)c1 | 10000 pM
CCc1ccc2c(c1)CCC(CC)N2S(=O)(=O)c1ccc(OCC2CCOCC2)c(S(N)(=O)=O)c1 (stereo not shown) | 576000 pM
CCc1ccc2c(c1)CCC(C)N2S(=O)(=O)c1ccc(OCC2CCOCC2)c(CO)c1 (stereo not shown) | 23600 pM

SMILES | EC50
CCc1ccc2c(c1)CCC(C(F)(F)F)N2S(=O)(=O)c1ccc(OCC2CCOCC2)c(CO)c1 (stereo not shown) | 23000 pM
CCc1ccc2c(c1)CC[C@@H](CC)N2S(=O)(=O)c1ccc(OCC2CCOCC2)c(CO)c1 | 4200 pM
CCC1CCc2cc(C(F)(F)F)ccc2N1S(=O)(=O)c1ccc(OCC2CCOCC2)c(CO)c1 (stereo not shown) | 21100 pM
CCc1ccc2c(c1)CCC(CC)N2S(=O)(=O)c1ccc(OCC2CCOCC2)c(CO)n1 (stereo not shown) | 212000 pM
CCc1ccc2c(c1)CCC(C)(C)N2S(=O)(=O)c1ccc(OCC2CCOCC2)c(CO)c1 | 310000 pM
CCCc1ccc2c(c1)CCC(C)N2S(=O)(=O)c1ccc(OCC2CCOCC2)c(CO)c1 (stereo not shown) | 17900 pM
CCc1cc(F)c2c(c1)CC[C@H](C)N2S(=O)(=O)c1ccc(OCC2CCOCC2)c(CO)c1 | 151000 pM
C[C@H]1CCc2cc(C(C)(F)F)ccc2N1S(=O)(=O)c1ccc(OCC2CCOCC2)c(CO)c1 | 181000 pM
CC(C)c1ccc2c(c1)CCC(C)N2S(=O)(=O)c1ccc(OCC2CCOCC2)c(CO)c1 (stereo not shown) | 14900 pM
CCC1CCc2cc(CC(F)(F)F)ccc2N1S(=O)(=O)c1ccc(OCC2CCOCC2)c(CO)c1 (stereo not shown) | 23000 pM
CCc1ccc2c(c1F)CCC(CC)N2S(=O)(=O)c1ccc(OCC2CCOCC2)c(CO)c1 (stereo not shown) | 13600 pM
C=C(C)c1ccc2c(c1)CCC(CC)N2S(=O)(=O)c1ccc(OCC2CCOCC2)c(CO)c1 (stereo not shown) | 12000 pM
CCc1ccc2c(c1)CCC(CC)N2S(=O)(=O)c1ccc(OCC2CCOCC2)c(CO)c1 (stereo not shown) | 11000 pM
CCc1ccc2c(c1)CC[C@H](C)N2S(=O)(=O)c1ccc(OCC2CCOCC2)c(CO)c1 | 25000 pM
CC[C@H]1CCc2cc(C(F)(F)F)ccc2N1S(=O)(=O)c1ccc(OCC2CCOCC2)c(CO)c1 | 71000 pM
CCc1ccc2c(c1)CCN2S(=O)(=O)c1ccc(OCC2CCOCC2)c(CO)c1 | 2.63e+06 pM
CC1CCc2cc(C#N)ccc2N1S(=O)(=O)c1ccc(OCC2CCOCC2)c(CO)c1 (stereo not shown) | 689000 pM
CCC1CCc2cc(C(C)(C)O)ccc2N1S(=O)(=O)c1ccc(OCC2CCOCC2)c(CO)c1 (stereo not shown) | 1.4e+06 pM
